The source of these data is publication PMC9395446, “First-in-human phase 1/1b study to evaluate sitravatinib in patients with advanced solid tumors” (Investigational New Drugs, 2022).

For data set [1] the following is noted: rat, in vivo, 4 weeks. Here is the method: The starting dose of 10 mg QD was selected based on non-clinical, 4-week toxicology studies conducted in rats and dogs. […] The proposed human dose was based on one-tenth of the STD10 in rats corrected for body surface area (mg/m^2).
The subject of the next data set is VEGF-R2. Kind of data set: Pharmacodynamic plasma markers VEGF-A and s-VEGF-R2, exposure-response analysis. It is filed as in vivo, human. Here is the method: PK samples were collected after a single dose during the PK lead-in period and following multiple oral doses during the study. Plasma PK samples were assayed for quantification of sitravatinib. The lower limit of quantification was 0.05 ng/mL. PK parameters were determined using a noncompartmental analysis approach including maximum (peak) concentration (Cmax), time to reach Cmax following drug administration (tmax), area under the plasma concentration–time curves (AUCs), apparent total clearance of the drug from plasma after oral administration, apparent volume of distribution during the terminal phase after administration and terminal elimination half-life (t1/2). PD effects were examined by analyzing VEGF-A ligand and soluble (s)-VEGF-R2 levels in patients’ plasma samples collected before and after sitravatinib administration.

For data set [2], the system named is target RTKs, including AXL, MERTK, VEGF-R, KIT and MET. The settings on record: read-out: Biochemical half-maximal inhibitory concentration, range; against target RTKs; cited from earlier work.

Molecules are shown by their SMILES. In brackets after ≈: the same amount, converted by molar mass.

For the molecule `COCCNCc1ccc(-c2cc3nccc(Oc4ccc(NC(=O)C5(C(=O)Nc6ccc(F)cc6)CC5)cc4F)c3s2)nc1` [sitravatinib, Sitravatinib], in data set [1], the “Highest dose not exceeding the severely toxic dose in 10% of animals (STD10)” value amounted to 10 mg/kg. For the same molecule, in the data set on VEGF-R2 (Homo sapiens, plasma PD markers, drug target VEGF-R2, read-out: EC50 from exposure-response analysis), the EC50 amounted to 0.0309 µg/mL (≈ 0.0491 µM). For the same molecule, the “VEGF-A percent change from baseline (increase)” value in the data set with VEGF-R2 (plasma, after sitravatinib administration) amounted to 200%. Besides, the IC50 in data set [2] was 1.5 to 20 nM.
